Non-standard residues stand in square brackets, D forms with d. Residues, ends and D or L forms follow the SMILES beside them. No end group written: not given here. *: point of attachment. pGlu = O=C1CC[C@@H](C(=O)O)N1; Pip = O=C(O)[C@@H]1CCCCN1; X2 = O=C(c1cc(O)nc(O)n1)*; Aze = O=C(O)[C@@H]1CCN1
Key:
blood coagulation = test: intravenous heparin in beagle, prothrombin time and activated partial thromboplastin time; type: in vivo; details: 200 U/Kg i.v.
Experimental: (2) Heparin, currently used as an anticoagulant, was used as a comparison with the peptides of the present invention.
Therefore, the in vivo stability of heparin was estimated by measuring the time-dependent change in the anticoagulation action which is the main action of heparin.
In the experiments, haparin as dissolved in saline was injected into the vein and blood was collected at given intervals of time to prepare PPP by the same method as that described in (1).
In the measurement of the anticoagulation action, the prepared PPP was used to measure prothrombin time, which is an indicator of blood coagulation activity in vitro, and activated partial thromboplastin time according to a conventional method. Each measurement was conducted under preincubation conditions at 37° C. for 3 minutes using AMELUNG KC-10A (Baxtor CO.). The rate of the disappearance of heparin from the body can be estimated by measuring the prolongations of the prothrombin time and the activated partial thromboplastin time (i.e., the prolongation of time up to coagulation) after the injection.

in vivo = test: in vivo; parameters: species or system MCH (ICR) strain mice; details: male, MCH (ICR), mouse, iv; for half-life: Half-Time of the synthetic peptides in mice
Experimental: For the evaluation of stability, MCH (ICR) strain mice (male, body weight: 28-32 g) were used. […] After a certain period of time, blood was collected from the abdominal vein using an injection syringe treated with heparin. Immediately after the collection, the blood was centrifuged (1500 g, 3 minutes) at 4° C. and the supernatant was stored frozen at -20° C. Each of the supernatants was analyzed by reversed phase HPLC in the same manner as that in the aforementioned evaluation of stability in plasma.

[1] = stability of the synthetic peptides in human plasma; type: in vitro ADME; details: 37° C., peptide 100 μM; for half-life at 100 μM: male, read-out: Half-Time of the synthetic peptides in plasma
Experimental: The blood sample thus prepared was examined for the stability in whole blood. […] Then, the supernatant was collected to obtain a plasma fraction. This plasma fraction was examined for the stability in plasma.
The whole blood or plasma (225 μl) was placed in a test tube and heated to 37° C. Each of the synthetic peptides was dissolved in saline (pH 7.4) to prepare a solution at a concentration of 1 mM. Each of the synthetic peptide solutions was added to the whole blood or plasma in an amount of 25 μl (final concentration: 100 μM) and incubated for a certain period of time. After the incubation, the solution was cooled with ice to stop the degradation reaction. The plasma was stored frozen at -20° C. without performing any treatments. The whole blood was centrifuged at 2000 g for 5 minutes at 4° C. and the supernatant was stored frozen.
The samples were analyzed by reversed phase HPLC. The peak area of each synthetic peptide was calculated and the stability in the whole blood or plasma was evaluated from the change of the peak area.

platelet aggregation = test: intravenous injection in beagle, platelet aggregation of PRP measured over time; type: in vivo; details: 5 mg/Kg i.v.
Experimental: (1) In order to examine how long the peptides of the present invention and heparin, which is used as an anticoagulant at present, can remain without being broken down or eliminated and how long the activity of them persists, intravenous injection experiments were carried out using beagles.
Since the peptides of the present invention have the platelet aggregation-inhibiting activity, the amount of the peptides which remain in the body of an organism without being broken down can be determined by collecting blood and measuring the platelet aggregation-inhibiting activity of the blood at given intervals of time. Thus, the in vivo stability of the peptides can be estimated.
In the experiments, a male beagle having a body weight of 10 Kg was used. […] The collected blood was centrifuged at 1000 rpm for 10 minutes to prepare platelet-rich plasma (PRP). The reminder was further centrifuged at 3000 rpm for 15 minutes to prepare platelet-poor plasma (PPP).
The platelet aggregation ability was determined by measuring the platelet aggregation of the PRP with collagen and ADP using an aggregometer. In the measurement, ADP was added at a final concentration of 7.5 and 10.0 μM and collagen was added at a final concentration of 7.5 and 10.0 μg/ml.

human platelets = test: protection of human platelet fraction during storage; details: platelet fraction, enzymes present in plasma
Experimental: Immediately after the blood collection, the syringe was stirred gently to mix the blood with the sodium citrate solution. The mixed blood was centrifuged (1100 rpm, 250 g) at room temperature for 15 minutes and the rotation was stopped without applying the brake. Then, the supernatant was collected with a pipette to obtain a platelet fraction. The remaining blood was further centrifuged (3000 rpm, 1000 g). The supernatant was collected to obtain platelet-poor plasma and stored.
The platelet fraction was placed in a polypropylene test tube, which was capped with a membrane filter to ensure breathability. Then, the test tube was placed on a shaker and stored at room temperature while shaking through vibrational amplitude of 20 cm at a frequency of 2 Hz. All the operations were performed under aseptic conditions to prevent the proliferation of bacteria during the storage.
After the storage for a given period of time, an aliquot of the platelet fraction was sampled and the number of platelets was measured. Prostaglandin E1 (Sigma Co.) was added to give a final concentration of 20 μg/ml and centrifuged at 750 g for 10 minutes. The supernatant was removed and the remainder was washed twice with HEPES-Tyrode's buffer containing prostaglandin E1 to remove the protected peptide. Finally, the platelets were suspended in preliminarily stored platelet-poor plasma. After the incubation for a given period of time, the aggregation ability of the platelets was determined by the method described above.

| half-life (in vivo) | Half-Time of the synthetic peptides in plasma [1] | half-life at 100 μM [1] | Compound | other results |
| --- | --- | --- | --- | --- |
| – | – | – | heparin | activated partial thromboplastin time (blood coagulation): The same results were obtained; time to completely recover prothrombin time to the level before injection (blood coagulation): 2 to 3 h |
| 3.3 min | at least 120 minutes | ≥ 120 min | N=C(N)NCCC[C@H](NC(=O)[C@H](CO)NC(=O)[C@@H]1CCCCN1)C(=O)NCC(=O)N[C@@H](CC(=O)O)C(=O)N[C@@H](Cc1c[nH]c2ccccc12)C(=O)O [Example 18, (L-Pipecolinyl)--Ser--Arg--Gly--Asp--Trp--OH] (H-[Pip]SRGDW-OH) | – |
| 3.3 min | – | 49 min | N=C(N)NCCC[C@H](NC(=O)[C@H](CO)NC(=O)[C@@H]1CCN1)C(=O)NCC(=O)N[C@@H](CC(=O)O)C(=O)N[C@@H](Cc1c[nH]c2ccccc12)C(=O)O [Example 17, (L-2-Azetidinecarboxyl)--Ser--Arg--Gly--Asp--Trp--OH] (H-[Aze]SRGDW-OH) | – |
| – | – | ≥ 240 min | N=C(N)NCCC[C@H](NC(=O)[C@H](CO)NC(=O)[C@@H]1CCC(=O)N1)C(=O)NCC(=O)N[C@@H](CC(=O)O)C(=O)N[C@@H](Cc1c[nH]c2ccccc12)C(=O)O [Example 11, Pyroglutamyl--Ser--Arg--Gly--Asp--Trp--OH] ([pGlu]SRGDW-OH) | – |
| ≤ 2 min | 11.5 min | 11.5 min | WSRGDW-OH [Example 1, Trp--Ser--Arg--Gly--Asp--Trp--OH] | – |
| ≤ 2 min | 74.5 min | 74.5 min | PSRGDW-OH [Example 16, Pro--Ser--Arg--Gly--Asp--Trp--OH] | – |
| – | – | – | N=C(N)NCCC[C@H](N)C(=O)NCC(=O)N[C@@H](CC(=O)O)C(=O)N[C@@H](Cc1ccccc1)C(=O)O [RGDF, reference compound] (H-RGDF-OH) | stability when added to a platelet fraction (human platelets): broken down in several hours |

| Compound | half-life (in vivo) | Half-Time of the synthetic peptides in plasma [1] | half-life at 100 μM [1] | other results |
| --- | --- | --- | --- | --- |
| N=C(N)NCCC[C@H](NC(=O)[C@H](CO)NC(=O)c1cc(O)nc(O)n1)C(=O)NCC(=O)N[C@@H](CC(=O)O)C(=O)N[C@@H](Cc1c[nH]c2ccccc12)C(=O)O [Example 9, Orotyl--Ser--Arg--Gly--Asp--Trp--OH] (X2-SRGDW-OH) | 10.1 min | – | ≥ 240 min | Half-Time of the synthetic peptides in mice (in vivo): 6.9 min; time within which the peptide was broken down in the body or eliminated from the kidney (platelet aggregation): ≤ 60 min |

— US5498601A, “Platelet aggregation-inhibiting peptides” (Nippon Steel Corporation, priority 1992, dated 1996)
